Source: ChEMBL document CHEMBL1201862, “PubChem BioAssay data set” (2004)
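A five-concentration, 48-hour dose response in 96-well plates underlies each endpoint, interpolated linearly between surrounding concentrations. GI50 marks 50% less growth.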 Calls of active or inactive are those of the source. Rule as the data show it: active = GI50 up to about 1.1 µM and inactive = higher.

Tests used:
Assay in all cases: NCI-60 cell line screen, 48 h
[1] = test system: CAKI-1
[2] = test system: HL-60
[3] = test system: HT-29
[4] = test system: MDA-MB-231
[5] = test system: MDA-N
[6] = test system: MOLT-4
[7] = test system: OVCAR-5
[8] = test system: OVCAR-8
[9] = test system: PC-3
[10] = test system: SF-295
[11] = test system: SK-MEL-28
[12] = test system: SK-MEL-2
[13] = test system: SK-OV-3
[14] = test system: SNB-75
[15] = test system: SW-620
[16] = test system: T47D
[17] = test system: U-251
[18] = test system: UACC-257
[19] = test system: CCRF-CEM
[20] = test system: A498

Measured: GI50

O=C(Nc1cccc2cnccc12)c1cc2c(cc1Cl)Sc1nccn1S2(=O)=O
inactive: [1] 25.8 µM | [2] 4.62 µM | [3] 14.6 µM | [4] 14.9 µM | [5] 7.01 µM | [6] 12.9 µM | [7] 25.2 µM | [8] 10.3 µM | [9] 23.3 µM | [10] 15.4 µM | [11] 17.6 µM | [12] 13.5 µM | [13] 40 µM | [14] 15.5 µM | [15] 15.5 µM | [16] 6 µM | [17] 10.4 µM | [18] 18.1 µM

CCOC(=O)C(NC(=O)c1ccco1)(Nc1nc2ccc(OCC)cc2s1)C(F)(F)F (centres undefined)
inactive: [1] 17.3 µM | [19] 23.8 µM | [2] > 100 µM | [3] 32.3 µM | [4] 55.3 µM | [5] 21.6 µM | [6] 20.1 µM | [7] 34.1 µM | [8] 43.9 µM | [9] 25.3 µM | [10] 43.1 µM | [11] 97.3 µM | [12] 32.7 µM | [13] 52.8 µM | [14] 19.8 µM | [15] 61.5 µM | [16] 26.9 µM | [17] 35.2 µM | [18] 28.4 µM

C[C@]12OC[C@H](c3ccccc3)N1C(=O)C1[C@H]2CC12SCCS2 (some centres undefined)
inactive: [20] > 100 µM | [1] > 100 µM | [19] > 100 µM | [3] > 100 µM | [4] > 100 µM | [5] > 100 µM | [6] > 100 µM | [7] > 100 µM | [8] > 100 µM | [9] > 100 µM | [10] > 100 µM | [11] > 100 µM | [12] > 100 µM | [13] > 100 µM | [14] > 100 µM | [15] > 100 µM | [16] > 100 µM | [17] > 100 µM | [18] > 100 µM

CN(C(=O)Cc1cccc(N=C=S)c1)[C@H]1CCCC[C@@H]1N1CCCC1
inactive: [20] 17.2 µM | [1] 15.4 µM | [19] 12.5 µM | [3] 11.5 µM | [4] 16.9 µM | [5] 14.1 µM | [6] 5.24 µM | [7] 19.2 µM | [8] 16.2 µM | [9] 15.2 µM | [10] 27.6 µM | [11] 16.1 µM | [12] 18.7 µM | [13] 25.5 µM | [14] 14.1 µM | [15] 11.6 µM | [16] 11.4 µM | [17] 17.1 µM | [18] 13.5 µM

CC(C)=CC(=O)c1[nH]c2ccccc2c1CC(=O)NCCc1cn(C(c2ccccc2)(c2ccccc2)c2ccccc2)cn1
inactive: [20] 4.22 µM | [1] 7.87 µM | [19] 2.48 µM | [2] 1.26 µM | [3] 3.32 µM | [4] 2.16 µM | [5] 2.91 µM | [6] 2.26 µM | [7] 3.39 µM | [8] 3.96 µM | [9] 2.46 µM | [10] 4.57 µM | [11] 3.4 µM | [12] 1.81 µM | [13] 13.5 µM | [15] 3.74 µM | [16] 3.77 µM | [17] 2.82 µM | [18] 3.67 µM

CC(=O)OC1C(Oc2c(C)cc3c(c2O)[C@@H](C)CC[C@@H]3[C@@H](C)CCC=C(C)C)OCC(O)C1O (some centres undefined)
inactive: [20] 20.3 µM | [1] 19.5 µM | [19] 22.8 µM | [2] 21.4 µM | [3] 14.4 µM | [4] 19.8 µM | [5] 21 µM | [6] 22.6 µM | [7] 16.9 µM | [8] 21.9 µM | [9] 20.3 µM | [10] 19.4 µM | [12] 25.3 µM | [13] 19.3 µM | [15] 18.7 µM | [16] 22.4 µM | [17] 17.3 µM | [18] 18.4 µM

C/C=C\C(CC(=O)NCC(=O)c1c[nH]c2ccccc12)CC(=O)OC (centres undefined)
inactive: [20] > 100 µM | [1] > 100 µM | [19] 75.2 µM | [3] > 100 µM | [4] > 100 µM | [5] > 100 µM | [6] > 100 µM | [7] > 100 µM | [8] > 100 µM | [9] > 100 µM | [10] > 100 µM | [11] > 100 µM | [12] > 100 µM | [13] > 100 µM | [14] > 100 µM | [15] > 100 µM | [16] > 100 µM | [17] > 100 µM | [18] > 100 µM

C=CC(C)(C)C(=C)C(=O)Nc1ccccc1I
inactive: [20] > 100 µM | [1] > 100 µM | [19] 19.3 µM | [3] > 100 µM | [4] > 100 µM | [5] > 100 µM | [7] > 100 µM | [8] > 100 µM | [9] > 100 µM | [10] > 100 µM | [11] > 100 µM | [12] > 100 µM | [13] > 100 µM | [14] > 100 µM | [15] > 100 µM | [16] > 100 µM | [17] > 100 µM | [18] > 100 µM

Nc1nc(=O)n(C2CC(O)C(CO)O2)c2nc(-c3ccc(-c4ccccc4)cc3)cnc12 (centres undefined)
inactive: [20] > 100 µM | [1] > 100 µM | [19] 27.6 µM | [3] > 100 µM | [4] 21.9 µM | [5] 58.2 µM | [6] 25.9 µM | [7] > 100 µM | [8] 67.9 µM | [9] 37.6 µM | [10] 48.5 µM | [12] 44.6 µM | [13] > 100 µM | [14] 23 µM | [15] > 100 µM | [16] 18.6 µM | [17] 18.6 µM | [18] > 100 µM

CCCCN1C(=O)N(c2ccc(OCC)cc2)C2N(CCCC)C1C(C)(C)C2(C)C (centres undefined)
inactive: [20] 35.2 µM | [1] 26.3 µM | [19] 16.3 µM | [3] 38.5 µM | [4] 41.5 µM | [5] 22 µM | [8] 32.3 µM | [9] 23.2 µM | [10] 47.4 µM | [11] 32.1 µM | [12] 31.6 µM | [13] 19.2 µM | [14] 37.3 µM | [15] 32.6 µM | [16] 22.4 µM | [17] 37 µM | [18] 27.5 µM

N#Cc1c(-c2ccccc2)cc(Nc2ccc(Cl)cc2)n2c1nc1ccccc12
inactive: [20] 3.71 µM | [1] 3.59 µM | [19] 4.66 µM | [3] 2.14 µM | [4] 3.27 µM | [5] 2.42 µM | [6] 2.34 µM | [7] 3.9 µM | [8] 2.96 µM | [9] 2.56 µM | [10] 3.4 µM | [11] > 55 µM | [12] 2.99 µM | [13] 2.72 µM | [14] 5.47 µM | [15] 4.84 µM | [16] 2.71 µM | [17] 2.49 µM | [18] 1.91 µM

Cc1cc(=O)oc2c(C)c3oc(CBr)cc3cc12
inactive: [1] 17.5 µM | [19] 14.4 µM | [2] 18.3 µM | [3] 27.4 µM | [4] 29.4 µM | [5] 19.2 µM | [6] 14.3 µM | [7] 16.8 µM | [8] 23.8 µM | [9] 16.9 µM | [10] 17.1 µM | [11] 19.8 µM | [12] 24.5 µM | [13] 27.4 µM | [14] 22.6 µM | [15] 13.5 µM | [16] 17.3 µM | [17] 19.8 µM | [18] 22.8 µM

CC(=O)O[C@H]1C(=O)[C@@]2(C)[C@H]([C@H](OC(=O)c3ccccc3)[C@@]3(O)C[C@H](O)C(C)=C1C3(C)C)[C@]1(OC(C)=O)CO[C@@H]1C[C@@H]2O
inactive: [1] > 100 µM | [19] 46.2 µM | [2] 61.9 µM | [3] 23.3 µM | [4] 45.1 µM | [5] 4.55 µM | [6] 73.3 µM | [7] 63.5 µM | [8] 31.2 µM | [9] 28 µM | [10] 37.5 µM | [11] 64.9 µM | [12] 46.9 µM | [13] 22.7 µM | [14] 11.2 µM | [15] 14.6 µM | [16] > 100 µM | [17] 45.9 µM | [18] 83.6 µM

Cc1cc2c(c(=O)n1C)SCC2
inactive: [20] > 100 µM | [1] > 100 µM | [19] > 100 µM | [3] > 100 µM | [4] > 100 µM | [5] > 100 µM | [6] > 100 µM | [7] > 100 µM | [8] > 100 µM | [9] > 100 µM | [10] > 100 µM | [11] > 100 µM | [12] > 100 µM | [13] > 100 µM | [14] > 100 µM | [15] > 100 µM | [16] > 100 µM | [17] > 100 µM | [18] > 100 µM

OCc1cccc(Nc2nc(O)c3[nH]cnc3n2)c1
inactive: [1] > 100 µM | [19] > 100 µM | [2] > 100 µM | [3] > 100 µM | [4] > 100 µM | [5] > 100 µM | [6] > 100 µM | [7] > 100 µM | [8] > 100 µM | [9] > 100 µM | [10] > 100 µM | [11] > 100 µM | [12] > 100 µM | [13] > 100 µM | [14] > 100 µM | [15] > 100 µM | [16] > 100 µM | [17] > 100 µM | [18] > 100 µM
